Experimental findings from patent publication US20220143212A1, “MAMC-MEDIATED BIOMIMETIC NANOPARTICLES” (UNIVERSIDAD DE GRANADA, priority 2018, published 2022) are described below.

The subject of one series is 4T1 tumors. Nature of the series: In vivo magnetic targeting and antitumor activity. The following applies: day 15, 2 mg/kg DOXO i.v. x5. Further details: species or system BALB/c mice. An excerpt: Female BALB/c mice were inoculated with 10^5 4T1 cells into a mammary gland fat pad. […] The 6 groups were intravenously injected and treated as follows: i) PBS (control), ii-iii) DOXO-BMNPs +/−gradient magnetic field, iv-v) BMNPs +/−gradient magnetic field, and vi) soluble DOXO. […] The magnetic field was applied by attaching a 10 mm in diameter×3 mm thick N42 neodymium magnet (1.8 kg pull, Magnet Expert Ltd) with 3MTM Vetbond™ tissue adhesive on the tumor site and keeping it attached for 1 hour after the injection. This neodymium magnet, with a magnetic anisotropy normal to the plane and a saturation magnetization of 800 emu/cc, could generate a direct current (d.c.) magnetic field of the order of 100 Oe a few millimeters from the surface. Therefore, the effect of the magnet is equivalent to the application of a local 100-Oe external d.c. magnetic field immediately after the administration of the nanoparticles. Throughout the study, body weight and tumor volumes (measured with caliper) were recorded every 3-4 days. Three days after the last injections (day 18), mice were euthanized, their weights, as well as, tumor weights were recorded and, then, tumors, hearts, livers, spleens, brains, lungs, and kidneys were collected for histology. Histological sections of the tumors were prepared for hematoxylin-eosin and Prussian blue staining to analyze particle biodistribution.

Series [1] relates to 4T1 cells. Nature of the series: Confocal analysis of DOXO internalization. The format is cell-based, murine. The note with it: soluble drug, positive control. The protocol:
Cells (approximately 20×10^3 4T1/well) were seeded on glass coverslips in 24-well plates and, after 24 h, soluble DOXO (as a positive control) or DOXO-BMNP suspensions were added. After incubation at 37° C. for different periods of time (30 seconds, 5 and 30 minutes) in the absence (−GMF) and in the presence (+GMF) of a gradient magnetic field, coverslips were washed with fresh PBS pH 7.2 and fixed with paraformaldehyde (2% wt in PBS). To minimize unspecific interactions and permeabilize cells, coverslips were washed with Tris-Buffered Saline (TBS) containing 5% Bovine Serum Albumin (BSA), 0.1% Triton X-100 and 5% got serum and then stained. In particular cytoskeletal actin microfilaments were stained with FITC-phalloidin (Sigma-Aldrich, excitation at 488 nm; emission at 500-535 nm) and nuclei were stained with TO-PRO-3 (1/70, Life Technologies; excitation at 633 nm; emission at 650-750 nm). DOXO was detected after excitation at 476 nm and emission at 575-630 nm. Fluorescence was detected using a Leica TCS SP2 AOBS Spectral Confocal Scanner microscope. Images were taken at 400× magnification. ImageJ software was used for analysis.

Series [2] relates to 4T1 cells. Put plainly: Detection of ROS production (CellROX Green, confocal). The format is cell-based, murine. The following applies: 100 μM, positive control. On the procedure:
To measure the potential oxidative stress in living cells, as a consequence of the presence of the BMNPs, CelIROX® Green Reagent (ThermoFisher) was used following the protocol recommended by the manufacturer. Briefly, cells (approximately 20×10^3 4T1/well) were seeded on glass coverslips in 24-well plates. After their exposure to different concentrations (0.1, 1, 10, 100 μg/mL), in the presence and absence of a gradient magnetic field, of BMNPs for 4 hours, the cells were washed with PBS and CelIROX® Green Reagent was added to a final concentration of 5 μM in 300 μl of DMEM medium without serum. Then, the plate was incubated in the dark at 37° C. for 30 minutes. Menadione (100 μM) was used as a positive control. After the incubation time, the coverslips were washed with PBS pH 7.2, fixed with 4% paraformaldehyde in PBS, washed again and permeabilized with 0.1% Triton-X100 for 10 minutes. Finally, the coverslips were stained and mounted on specimen slides (Biosigma). […] Therefore, the emission of green fluorescence (at 485/520 nm) is stable and is produced after the DNA binding, and therefore its signal is mainly located in the nucleus and in the mitochondria. Fluorescence was detected using a Spectral Confocal Leica TCS SP2 AOBS microscope. […]

In the case of `COc1cccc2c1C(=O)c1c(O)c3c(c(O)c1C2=O)C[C@@](O)(C(=O)CO)C[C@@H]3O[C@H]1C[C@H](N)[C@H](O)[C@H](C)O1` [soluble DOXO, doxorubicin], the tumor volume result with 4T1 tumors was “significantly reduced”. Besides, in the series on 4T1 cells [1], the “internalization of DOXO in cell nuclei (confocal)” value is on record as “detected only after 5 min”.
As for `CC1=CC(=O)c2ccccc2C1=O` [Menadione], the ROS release entry with 4T1 cells [2] is recorded as “clearly visible”.
